# Paper PMC2409929 (British Journal of Cancer, 2004)
# What was measured:
# [1] = tested on: patients with metastatic colorectal cancer; experiment: Randomised phase II trial: tumour response (WHO criteria) and time-to-event efficacy; details: for Complete response, % / Duration of response and stabilisation, median (min–max) / Overall response (CR+PR), % / Partial response, % / Progressive disease, % / Response not evaluable, % / Stable disease, % / Survival, median (min–max) / Time to progression, median (min–max) / Time to treatment failure, median (min–max): intent-to-treat
# Procedure: A total of 17 centres in Europe participated in this study: two in Denmark, one in Ireland, four in The Netherlands, five in Norway, two in Sweden and three in Russia. […] Randomisation was performed centrally by Aventis Pharma R&D, Antony Cedex, France. […] A total of 37 evaluable patients per arm had to be included.
# Pretreatment evaluation included a complete medical history and complete physical examination. Before each course, blood chemistry and haematology profiles were checked. Haematology was checked weekly. […] An external response review committee (ERRC) was established during the study to perform assessments of tumour response. […] Adverse events that were not reported according to NCI-CTC were graded as mild, moderate, severe, or life threatening.
# The primary efficacy variable was response rate; overall response was defined as complete plus partial response. The secondary efficacy variables were the duration of response and stabilisation, time to progression, time to treatment failure and the overall survival. The differences between the four treatment groups were explored with the χ^2 test. Subsequent statistical tests were performed only in the case of evidence of difference to provide the significance level of difference. The Fisher exact test was used to compare treatment groups on categorical variables. For continuous variables, if a normal distribution could be assumed, Student's t-tests were used. Otherwise, they were analysed by nonparametric methods. Exact confidence intervals were calculated using binominal distribution probability. Censored data were analysed using the Kaplan–Meier method; the log-rank test was used to compare the groups. Differences in pharmacokinetic parameters between the four treatment arms were evaluated using one-way analysis of variance (ANOVA) combined with least significant difference (LSD) method (P was set at 0.05) and the Student's t-test was used to calculate the P-value of significant differences. The Pearson correlation coefficient (r) was calculated between dose and pharmacokinetic parameters. Statistical analyses were performed with SPSS (version 10.0.7 for Windows, SPSS Inc.). All tests for significance were two-tailed.
# [2] = Population pharmacokinetics, plasma total irinotecan and SN-38 (HPLC, NONMEM), first course; assay type: in vivo; details: human, iv
# Procedure: A pharmacokinetic evaluation was performed using a population approach; 88 patients from arms A, B and C were evaluated during the first course of treatment. The sampling strategy consisted of three different sampling schedules (with three sampling times in each): schedule 1: 30 min before the end of the infusion, 5 min and 3–4 h post-infusion; schedule 2: 30 min before the end of the infusion, 10 min and 5–7 h post-infusion; schedule 3: 5 min before the end of the infusion, 30 min and 20–24 h post-infusion. In a few cases, an additional sample was taken in schedules 1 and 2 after 24 h. All patients at one site were sampled according to the same schedule. The aim of the sampling strategy was to define the full kinetic profile over the whole population, by drawing a small number of samples at different times from a large number of patients.
# Blood samples (5 ml) were collected in heparinised tubes and immediately immersed in ice-water. Plasma was obtained by centrifugation of the samples (5 min; 3000 r.p.m., 4°C) and stored at −20°C or lower until analysis. […] Pharmacokinetic parameters were determined by the Bayesian approach with the concentration–time data from each patient, and a population model previously defined.
# Otherwise, they were analysed by nonparametric methods. […] All tests for significance were two-tailed.
# [3] = arm A (350 mg m^−2 90-min i.v. q3 weeks)
# [4] = arm B (125 mg m^−2 90-min i.v. weekly × 4 q6 weeks)
# [5] = arm C (250 mg m^−2 90-min i.v. q2 weeks)
# [6] = arm D (10 mg m^−2 day^−1 14-day continuous infusion q3 weeks)
# [7] = arm A, 350 mg m^−2 90-min i.v. infusion, N=30, mean±s.d.
# [8] = arm B, 125 mg m^−2 90-min i.v. infusion, N=28, mean±s.d.
# [9] = arm C, 250 mg m^−2 90-min i.v. infusion, N=30, mean±s.d.
smiles,measurement,setting,value
CCc1c2c(nc3ccc(OC(=O)N4CCC(N5CCCCC5)CC4)cc13)-c1cc3c(c(=O)n1C2)COC(=O)[C@]3(O)CC [irinotecan],Patients who discontinued treatment because of progressive disease,[1]; [3],81%
same,"Complete response, %",[1]; [3],0%
same,"Duration of response and stabilisation, median (min–max)",[1]; [3],5.9 (0.8–12.7) Months
same,"Overall response (CR+PR), %",[1]; [3],7%
same,"Partial response, %",[1]; [3],7%
same,"Progressive disease, %",[1]; [3],46%
same,"Response not evaluable, %",[1]; [3],2%
same,"Stable disease, %",[1]; [3],44%
same,"Survival, median (min–max)",[1]; [3],9.4 (1.0–15.3) Months
same,"Time to progression, median (min–max)",[1]; [3],2.7 (1.0–12.8) Months
same,"Time to treatment failure, median (min–max)",[1]; [3],2.7 (1.0–12.8) Months
same,Patients who discontinued treatment because of progressive disease,[1]; [4],57%
same,"Complete response, %",[1]; [4],0%
same,"Duration of response and stabilisation, median (min–max)",[1]; [4],3.9 (1.0–13.0) Months
same,"Overall response (CR+PR), %",[1]; [4],5%
same,"Partial response, %",[1]; [4],5%
same,"Progressive disease, %",[1]; [4],19%
same,"Response not evaluable, %",[1]; [4],14%
same,"Stable disease, %",[1]; [4],62%
same,"Survival, median (min–max)",[1]; [4],7.1 (0.6–13.5) Months
same,"Time to treatment failure, median (min–max)",[1]; [4],2.3 (0.6–8.3) Months
same,Patients who discontinued treatment because of progressive disease,[1]; [5],61%
same,"Complete response, %",[1]; [5],0%
same,"Duration of response and stabilisation, median (min–max)",[1]; [5],5.3 (1.3–8.9) Months
same,"Overall response (CR+PR), %",[1]; [5],11%
same,"Partial response, %",[1]; [5],11%
same,"Progressive disease, %",[1]; [5],33%
same,"Response not evaluable, %",[1]; [5],2%
same,"Stable disease, %",[1]; [5],54%
same,"Survival, median (min–max)",[1]; [5],8.6 (0.7–16.7) Months
same,"Time to progression, median (min–max)",[1]; [5],3.8 (0.0–8.9) Months
same,"Time to treatment failure, median (min–max)",[1]; [5],3.2 (0.4–7.1) Months
same,Patients who discontinued treatment because of progressive disease,[1]; [6],55%
same,"Complete response, %",[1]; [6],2%
same,"Duration of response and stabilisation, median (min–max)",[1]; [6],3.4 (1.3–6.9) Months
same,"Overall response (CR+PR), %",[1]; [6],5%
same,"Partial response, %",[1]; [6],2%
same,"Progressive disease, %",[1]; [6],34%
same,"Response not evaluable, %",[1]; [6],18%
same,"Stable disease, %",[1]; [6],43%
same,"Survival, median (min–max)",[1]; [6],6.4 (1.1–15.1) Months
same,"Time to progression, median (min–max)",[1]; [6],2.8 (0.0–7.0) Months
same,"Time to treatment failure, median (min–max)",[1]; [6],1.7 (0.5–7.1) Months
same,Median survival,[1]; range across the four arms A–D,6.4–9.4 months
same,Overall response rates,[1]; range across the four arms A–D,5–11%
same,Time to progression,[1]; range across the four arms A–D,2.7–3.8 months
same,Time to treatment failure,[1]; range across the four arms A–D,1.7–3.2 months
same,AUC,[2]; [7],47.8 ± 19 µM·h
same,Cmax,[2]; [7],7.91 ± 1.1 µM
same,AUC,[2]; [8],14.6 ± 6.9 µM·h
same,Cmax,[2]; [8],2.62 ± 0.39 µM
same,AUC,[2]; [9],32.7 ± 13.5 µM·h
same,Cmax,[2]; [9],5.52 ± 0.9 µM
